“Also recorded” adds a separate entry of the source. Read-outs that look alike come from different tables or passages of the source.
Assays:
DXP synthase [1] = conditions: cited from earlier work
DXP synthase [2] = target: T1, DXP synthase (Escherichia coli, UniProt P77488); experiment: DXP synthase inhibition, continuous spectrophotometric IspC-coupled assay; assay type: biochemical, E. coli; conditions: for mode of inhibition with respect to D-GAP / mode of inhibition with respect to pyruvate: model discrimination analysis (AIC)
[3] = pH 8
DXP synthase [4] = target: T1, DXP synthase; experiment: Rapid dilution experiment; assay type: biochemical, E. coli; conditions: pre-incubation 15 or 30 min
DXP synthase [5] = target: T1, DXP synthase; experiment: DXP synthase inhibitory activity in the presence of BME or ascorbic acid; assay type: biochemical, E. coli; conditions: inhibitor 50 µM
[6] = 13C NMR monitoring of oxime 8 at pH 8; assay type: physicochemical; conditions: pH 8, 24 hours
[7] = Stability of inhibitors under the assay conditions; conditions: HEPES pH 8.0, 37 °C, HPLC analysis, data not shown

T1 sequence (P77488 whole entry): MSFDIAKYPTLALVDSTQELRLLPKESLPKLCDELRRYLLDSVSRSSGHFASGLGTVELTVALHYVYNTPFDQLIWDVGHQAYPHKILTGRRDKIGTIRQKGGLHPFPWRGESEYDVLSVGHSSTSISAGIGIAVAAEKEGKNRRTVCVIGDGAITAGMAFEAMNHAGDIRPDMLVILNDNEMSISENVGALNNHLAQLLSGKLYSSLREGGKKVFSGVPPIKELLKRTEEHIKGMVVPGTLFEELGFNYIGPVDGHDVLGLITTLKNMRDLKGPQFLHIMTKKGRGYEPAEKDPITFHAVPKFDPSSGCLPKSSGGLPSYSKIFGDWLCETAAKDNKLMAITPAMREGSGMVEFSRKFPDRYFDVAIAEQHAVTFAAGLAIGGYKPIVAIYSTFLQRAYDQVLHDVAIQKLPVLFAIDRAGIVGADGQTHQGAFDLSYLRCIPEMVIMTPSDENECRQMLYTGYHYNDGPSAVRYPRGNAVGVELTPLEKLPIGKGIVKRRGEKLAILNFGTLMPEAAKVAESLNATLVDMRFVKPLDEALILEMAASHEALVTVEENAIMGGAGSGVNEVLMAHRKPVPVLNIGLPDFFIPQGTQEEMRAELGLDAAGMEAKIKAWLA

CCCCOP(=O)(O)C(C)=O [Butyl Acetyl Phosphonate]
Ki (DXP synthase [1]): 5.6 ± 0.8 µM

O=C([O-])/C=N/OCCO/N=C/c1cc(O)c(O)cc1O.[Na+] [Compound 4, Sodium (1E,7E)-1-(2,4,5-trihydroxyphenyl)-3,6-dioxa-2,7-diazanona-1,7-dien-9-oate]
mode of inhibition with respect to D-GAP (DXP synthase [2]): competitive | mode of inhibition with respect to pyruvate (DXP synthase [2]): noncompetitive

Oc1cc(O)c(/C=N/OCCO/N=C/c2cc(O)c(O)cc2O)cc1O [Compound 5, (1E,1'E)-O,O'-(Ethane-1,2-diyl)bis(1-(2,4,5-trihydroxyphenyl)-2,4,5-trihydroxybenzaldehyde oxime)]
mode of inhibition with respect to D-GAP (DXP synthase [2]): competitive | mode of inhibition with respect to pyruvate (DXP synthase [2]): uncompetitive

O=Cc1cc(O)c(O)cc1O [Compound 6, 2,4,5-trihydroxybenzaldehyde]
stability under the conditions of the assay [3]: unstable

O/N=C/c1cc(O)c(O)cc1O [Compound 7, (E)-2,4,5-Trihydroxybenzaldehyde oxime]
mode of inhibition with respect to D-GAP (DXP synthase [2]): competitive | mode of inhibition with respect to pyruvate (DXP synthase [2]): uncompetitive

CO/N=C/c1cc(O)c(O)cc1O [Compound 8, (E)-2,4,5-Trihydroxybenzaldehyde O-methyl oxime]
mode of inhibition with respect to pyruvate (DXP synthase [2]): noncompetitive | time dependence of inhibitory activity (DXP synthase [4]): not time-dependent | inhibitory activity in the presence of BME (DXP synthase [5]; BME 0.5 mM): abolished; also recorded: abolishes inhibitory activity | inhibitory activity in the presence of ascorbic acid (DXP synthase [5]; ascorbic acid 2.0 mM): does not abolish inhibitory activity | quinone species observed by 13C NMR [6]: no observable quinone species

Oc1cc(O)c(/C=N/OCc2ccccc2)cc1O [Compound 9, (E)-2,4,5-Trihydroxybenzaldehyde O-benzyl oxime]
mode of inhibition with respect to pyruvate (DXP synthase [2]): noncompetitive

CONCc1cc(O)c(O)cc1O.Cl [Compound 10, 5-((Methoxyamino)methyl)benzene-1,2,4-triol hydrochloride]
Ki (DXP synthase [2]; evaluated in the presence of ascorbic acid (2.0 mM)): > 75 µM | stability under the conditions of the assay [7]: unstable

CN/N=C/c1cc(O)c(O)cc1O [Compound 11, (E)-5-((2-Methylhydrazono)methyl)benzene-1,2,4-triol]
stability under the conditions of the assay [7]: unstable

CO/N=C/c1cc(O)c(O)c(O)c1 [Compound 17, (E)-3,4,5-Trihydroxybenzaldehyde O-methyl oxime]
mode of inhibition with respect to D-GAP (DXP synthase [2]): competitive

CO/N=C/c1cc(O)c(O)c(OC)c1 [Compound 18, (E)-3,4-Dihydroxy-5-methoxybenzaldehyde O-methyl oxime]
inhibition at 200 µM (DXP synthase [2]): 18%

CO/N=C/c1cccc([N+](=O)[O-])c1O [Compound 21, (E)-2-Hydroxy-3-nitrobenzaldehyde O-methyl oxime]
Ki (DXP synthase [2]): 47.8 ± 8.4 µM | mode of inhibition with respect to D-GAP (DXP synthase [2]): competitive

CO/N=C/c1cc(O)c(O)cc1F [Compound 22, (E)-2-Fluoro-4,5-dihydroxybenzaldehyde O-methyl oxime]
mode of inhibition with respect to D-GAP (DXP synthase [2]): competitive | stability under the conditions of the assay [3]: unstable

CO/N=C/c1cc(F)c(F)cc1O [Compound 23, (E)-4,5-Difluoro-2-hydroxybenzaldehyde O-methyl oxime]
inhibitory activity (DXP synthase [2]; up to 100 µM): minimally active

CC1(C)C(=O)ON(Cc2ccccc2Cl)C1=O [Ketoclomazone]
Ki (DXP synthase [1]): 75 µM | mode of inhibition against D-GAP (DXP synthase [1]): noncompetitive | mode of inhibition with respect to pyruvate (DXP synthase [1]): uncompetitive

Reference: article PMC4609000 (Chembiochem : a European journal of chemical biology, 2015)
